{
  "source": "patent US20150140121A1",
  "about": "“Compositions and Methods for Tight Junction Modulation” (Lankenau Institute for Medical Research, priority 2012, published 2015)",
  "key": {"[1]": {"system": "occludin", "conditions": "CACO-2 and HT-29/B6 cell layers, cited from earlier work"}, "[2]": {"system": "claudin-4", "conditions": "berberine; CACO-2 and HT-29/B6 cell layers; cited from earlier work"}, "[3]": {"system": "claudin 7", "conditions": "berberine; CACO-2 and HT-29/B6 cell layers; cited from earlier work"}, "[4]": {"system": "colonc epithelial (CACO-2 and HT-29/B6) cell layers", "conditions": "berberine 50 micromolar, Li et al. 2010, Amasheh et al. 2010; cited from earlier work"}, "[5]": {"system": "claudin 5", "conditions": "berberine; CACO-2 and HT-29/B6 cell layers; cited from earlier work"}, "[6]": {"system": "claudin 2", "conditions": "berberine; CACO-2 and HT-29/B6 cell layers; cited from earlier work"}, "[7]": {"system": "claudin-1", "conditions": "berberine; CACO-2 and HT-29/B6 cell layers; cited from earlier work"}, "[8]": {"system": "claudin 3", "conditions": "berberine; CACO-2 and HT-29/B6 cell layers; cited from earlier work"}, "[9]": {"system": "mammary epithelial barrier", "conditions": "selenium (e.g., 100 ng/ml), Martin et al. 2007; cited from earlier work"}, "[10]": {"system": "occludin", "conditions": "selenium (e.g., 100 ng/ml); Martin et al. 2007; cited from earlier work"}, "[11]": {"system": "ZO-1", "conditions": "selenium (e.g., 100 ng/ml); Martin et al. 2007; cited from earlier work"}, "[12]": {"system": "mammary epithelial barrier", "conditions": "selenium at supplemental concentration (e.g., 100 ng/ml); Martin et al. 2007; cited from earlier work"}, "[13]": {"system": "Tricellulin", "assay": "Tricellulin expression in LLC-PK1 cell layers (Western immunoblot)", "type": "cell-based, porcine", "description": "(§1) Zinc has long been known to be efficacious in the treatment of certain types of diarrhea. It has been determined that zinc can render certain TJ barriers less leaky. Zinc effects can vary depending upon the specific type of epithelial layer."}, "[14]": {"system": "LLC-PK1 cell layers", "assay": "Transepithelial electrical resistance (Rt) across LLC-PK1 cell layers", "type": "cell-based, porcine", "conditions": "LLC-PK1 cell layers", "protocol": "LLC-PK1 is a porcine cell line model of the kidney proximal tubule.\nThe effect of zinc and/or quercetin on the electrical resistance across LLC-PK1 renal epithelial cell layers was tested. Briefly, LLC-PK1 renal epithelial cell layers were treated with either 100 μM zinc alone, 400 μM quercetin alone; or both agents together. The stimulation of transepithelial electrical resistance (Rt) by maximally effective concentrations of zinc alone and quercetin alone was in the range of 50-60% of control levels. […] The results shown in FIG. 8 represent the mean+/− standard error for 12 cell layers. P values are for one-sided Student's t tests."}, "[15]": {"system": "Claudin-3", "assay": "Claudin-3 expression in LLC-PK1 cell layers (Western immunoblot)", "type": "cell-based, porcine", "description": "as §1"}, "[16]": {"system": "Claudin-7", "assay": "Claudin-7 expression in LLC-PK1 cell layers", "type": "cell-based, porcine", "conditions": "indole; LLC-PK1 cells"}, "[17]": {"system": "Claudin-4", "assay": "Claudin-4 expression in LLC-PK1 cell layers (Western immunoblot)", "type": "cell-based, porcine", "description": "as §1"}, "[18]": {"system": "claudin-2", "conditions": "indole 1 mM; HCT-8 cell layers; Bansal et al. 2010; cited from earlier work"}, "[19]": {"system": "Claudin-5", "assay": "Claudin-5 expression in LLC-PK1 cell layers (Western immunoblot)", "type": "cell-based, porcine", "description": "as §1"}, "[20]": {"system": "Claudin-1", "assay": "Claudin-1 expression in LLC-PK1 cell layers (Western immunoblot)", "type": "cell-based, porcine", "description": "as §1"}, "[21]": {"system": "Occludin", "assay": "Occludin expression in LLC-PK1 cell layers (Western immunoblot)", "type": "cell-based, porcine", "conditions": "indole; LLC-PK1 cells", "description": "as §1"}, "[22]": {"system": "Claudin-2", "assay": "Claudin-2 expression in LLC-PK1 cell layers (Western immunoblot)", "type": "cell-based, porcine", "description": "as §1"}, "[23]": {"system": "human colonic (HCT-8) epithelial cell layers", "conditions": "indole 1 mM; HCT-8 cell layers; Bansal et al. 2010; cited from earlier work"}, "[24]": {"conditions": "1 mM Indole, LLC-PK1 cell layers, given as Decr (decrease)"}, "[25]": {"conditions": "1 mM Indole, LLC-PK1 cell layers, given as Incr (increase)"}},
  "data": [
    {"molecule": "COc1ccc2cc3[n+](cc2c1OC)CCc1cc2c(cc1-3)OCO2", "note": "[berberine]", "values": [
      {"measurement": "occludin redistribution that ensues from proinflammatory cytokine exposure", "setting": "[1]; berberine 50 micromolar", "result": "prevents"},
      {"measurement": "amount of occludin", "setting": "[1]; berberine", "result": "no effect"},
      {"measurement": "amount of claudin 4", "setting": "[2]", "result": "no effect"},
      {"measurement": "amount of claudin 7", "setting": "[3]", "result": "no effect"},
      {"measurement": "TJ leakiness that ensues from proinflammatory cytokine exposure", "setting": "[4]", "result": "prevents"},
      {"measurement": "amount of claudin 5", "setting": "[5]", "result": "no effect"},
      {"measurement": "cellular amount of claudin 2", "setting": "[6]", "result": "Strong effects"},
      {"measurement": "cellular amount of claudin 1", "setting": "[7]", "result": "Strong effects"},
      {"measurement": "amount of claudin 3", "setting": "[8]", "result": "no effect"}
    ]},
    {"molecule": "[Se]", "note": "[Selenium]", "values": [
      {"measurement": "paracellular invasion of cancer cells", "setting": "[9]", "result": "decreased"},
      {"measurement": "cellular redistribution of occludin from cytosolic to junctional regions", "setting": "[10]", "result": "cellular redistribution"},
      {"measurement": "cellular redistribution of ZO-1 from cytosolic to junctional regions", "setting": "[11]", "result": "cellular redistribution"},
      {"measurement": "Rt", "setting": "[12]", "result": "increased"}
    ]},
    {"molecule": "c1ccc2[nH]ccc2c1", "note": "[indole]", "values": [
      {"measurement": "Tricellulin", "setting": "[13]; [24]", "result": "Decr 10%"},
      {"measurement": "effect on tricellulin", "setting": "[13]; indole, LLC-PK1 cells", "result": "less than 50%"},
      {"measurement": "transepithelial resistance", "setting": "[14]; 1 mM Indole, given as Incr (increase)", "result": "Incr 30%"},
      {"measurement": "transepithelial resistance", "setting": "[14]; indole (0.1, 1, 2 mM, FIG. 6)", "result": "increased"},
      {"measurement": "Claudin-3", "setting": "[15]; [24]", "result": "Decr 20%"},
      {"measurement": "effect on claudin 3", "setting": "[15]; indole, LLC-PK1 cells", "result": "less than 50%"},
      {"measurement": "effect on claudin 7", "setting": "[16]", "result": "less than 50%"},
      {"measurement": "Claudin-4", "setting": "[17]; [25]", "result": "Incr 100%"},
      {"measurement": "expression of Claudin 4", "setting": "[17]; indole (1 mM, FIG. 5A), LLC-PK1 cells", "result": "upregulated"},
      {"measurement": "abundance of claudin-2", "setting": "[18]", "result": "decreased"},
      {"measurement": "Claudin-5", "setting": "[19]; [25]", "result": "Incr 150%"},
      {"measurement": "expression of Claudin 5", "setting": "[19]; indole (1 mM, FIG. 5B), LLC-PK1 cells", "result": "upregulated"},
      {"measurement": "Claudin-1", "setting": "[20]; [24]", "result": "Decr 30%"},
      {"measurement": "effect on claudin 1", "setting": "[20]; indole, LLC-PK1 cells", "result": "less than 50%"},
      {"measurement": "effect on occludin", "setting": "[21]", "result": "less than 50%"},
      {"measurement": "Claudin-2", "setting": "[22]; [24]", "result": "Decr 40%"},
      {"measurement": "effect on claudin 2", "setting": "[22]; indole, LLC-PK1 cells", "result": "less than 50%"},
      {"measurement": "Rt", "setting": "[23]", "result": "increased"}
    ]}
  ]
}
